The term IC50 denotes the midpoint of a concentration-inhibition curve.

Each structure is given as a SMILES string.

Data on 31 compounds can be found in patent US20260365628A1, “SUBSTITUTED 3,4-DIHYDROQUINOLINONE INHIBITORS OF TSHR” (Septerna, Inc., priority 2022, published 2026).

The assay deals with T1, hTSHR (Homo sapiens, UniProt P16473).
T1 construct: expressed in transfected cells
As to the kind of experiment: hTSHR TR-FRET cAMP Assay (inhibition of M22-stimulated cAMP production). Conditions: Expi293F Inducible cells stably expressing hTSHR; cAMP HTRF; stimulated with EC80 of anti-TSHR antibody M22; 15 min compound preincubation, 30 min at 37° C.; read-out: Activity (IC50 bins). It is filed as cell-based. The gist of the method:
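Readout was a cAMP HTRF ratio of 655/620 nm after lysis, scaled between the EC80 M22 signal (0% inhibition) and no-agonist vehicle (100%). Frozen induced Expi293F-hTSHR cells saw test compounds (0.5% DMSO) for 15 min at 37 °C before 30 min of M22 stimulation at EC80.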

T1 sequence (P16473 21-764): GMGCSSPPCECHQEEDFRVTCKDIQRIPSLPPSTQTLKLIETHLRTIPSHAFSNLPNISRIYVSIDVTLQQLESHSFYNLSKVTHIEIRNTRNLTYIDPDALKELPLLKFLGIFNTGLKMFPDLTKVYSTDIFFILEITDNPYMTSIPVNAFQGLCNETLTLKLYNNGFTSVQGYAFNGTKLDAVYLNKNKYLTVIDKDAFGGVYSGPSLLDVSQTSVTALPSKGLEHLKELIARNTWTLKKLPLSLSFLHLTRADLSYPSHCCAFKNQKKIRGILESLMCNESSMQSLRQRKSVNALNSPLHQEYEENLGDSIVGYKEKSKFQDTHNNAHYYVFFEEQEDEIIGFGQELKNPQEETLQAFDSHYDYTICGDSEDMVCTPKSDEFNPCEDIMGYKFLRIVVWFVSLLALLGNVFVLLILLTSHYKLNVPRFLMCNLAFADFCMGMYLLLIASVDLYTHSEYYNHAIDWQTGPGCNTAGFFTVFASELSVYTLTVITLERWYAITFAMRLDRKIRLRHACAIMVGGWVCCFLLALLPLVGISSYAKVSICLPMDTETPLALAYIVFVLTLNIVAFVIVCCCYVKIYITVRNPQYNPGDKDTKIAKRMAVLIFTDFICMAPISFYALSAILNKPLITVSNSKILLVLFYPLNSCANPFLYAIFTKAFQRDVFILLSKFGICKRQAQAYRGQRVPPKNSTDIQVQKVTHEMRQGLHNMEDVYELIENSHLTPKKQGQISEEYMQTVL

`C[C@@H](c1cccc(OC(F)(F)F)c1)n1c(=O)cnc2cc(NC(=O)NC3(C)CCC3)ccc21` [Example 200, (S)-1-(1-methylcyclobutyl)-3-(2-oxo-1-(1-(3-(trifluoromethoxy)phenyl)ethyl)-1,2-dihydroquinoxalin-6-yl)urea]: the IC50 was less than 100 nM.
For `C[C@@H](c1cccc(OC(F)(F)F)c1)n1c(=O)cnc2cc(NC(=O)NCC(C)(C)C)ccc21` [Example 201, (S)-1-neopentyl-3-(2-oxo-1-(1-(3-(trifluoromethoxy)phenyl)ethyl)-1,2-dihydroquinoxalin-6-yl)urea] the value was 100 to 1000 nM; for `C[C@@H](c1cccc(OC(F)(F)F)c1)n1c(=O)cnc2cc(NC(=O)CCc3cccc(C(F)(F)F)c3)ccc21` [Example 202, (S)-N-(2-oxo-1-(1-(3-(trifluoromethoxy)phenyl)ethyl)-1,2-dihydroquinoxalin-6-yl)-3-(3-(trifluoromethyl)phenyl) propanamide], less than 100 nM; for `C[C@@H](c1cccc(OC(F)(F)F)c1)n1c(=O)cnc2cc(NC(=O)NC3(C)CCCC3)ccc21` [Example 203, (S)-1-(1-methylcyclopentyl)-3-(2-oxo-1-(1-(3-(trifluoromethoxy)phenyl)ethyl)-1,2-dihydroquinoxalin-6-yl)urea], 100 to 1000 nM.
Under `C[C@@H](c1cccc(OC(F)(F)F)c1)n1c(=O)cnc2cc(NC(=O)NC3CC(F)(F)C3)ccc21` [Example 204, (S)-1-(3,3-difluorocyclobutyl)-3-(2-oxo-1-(1-(3-(trifluoromethoxy)phenyl)ethyl)-1,2-dihydroquinoxalin-6-yl)urea] stands 100 to 1000 nM; under `C[C@@H](c1cccc(OC(F)(F)F)c1)n1c(=O)cnc2cc(NC(=O)NC3CCC3)ccc21` [Example 205, (S)-1-cyclobutyl-3-(2-oxo-1-(1-(3-(trifluoromethoxy)phenyl)ethyl)-1,2-dihydroquinoxalin-6-yl)urea], 100 to 1000 nM.
Under `C[C@@H](c1cccc(OC(F)(F)F)c1)n1c(=O)cnc2cc(NC(=O)NC34CC(C3)C4)ccc21` [Example 206, (S)-1-(bicycl[1.1.1]pentan-1-yl)-3-(2-oxo-1-(1-(3-(trifluoromethoxy)phenyl)ethyl)-1,2-dihydroquinoxalin-6-yl)urea] stands 100 to 1000 nM; under `CC(C)CCNC(=O)Nc1ccc2c(c1)ncc(=O)n2[C@@H](C)c1cccc(OC(F)(F)F)c1` [Example 207, (S)-1-isopentyl-3-(2-oxo-1-(1-(3-(trifluoromethoxy)phenyl)ethyl)-1,2-dihydroquinoxalin-6-yl)urea], 100 to 1000 nM.
Regarding `C[C@@H](c1cccc(OC(F)(F)F)c1)n1c(=O)cnc2cc(NC(=O)NC(C)(C)C(F)(F)F)ccc21` [Example 208, (S)-1-(2-oxo-1-(1-(3-(trifluoromethoxy)phenyl)ethyl)-1,2-dihydroquinoxalin-6-yl)-3-(1,1,1-trifluoro-2-methylpropan-2-yl)urea], the IC50 lay in the range of 100 to 1000 nM.
For `Cc1c(NC(=O)NC(C)(C)C)ccc2c1ncc(=O)n2[C@@H](C)c1cccc(OC(F)(F)F)c1` [Example 209, (S)-1-(tert-butyl)-3-(5-methyl-2-oxo-1-(1-(3-(trifluoromethoxy)phenyl)ethyl)-1,2-dihydroquinoxalin-6-yl)urea] the value was 100 to 1000 nM; for `C[C@@H](c1cccc(OC(F)(F)F)c1)n1c(=O)cnc2cc(NC(=O)NC3(C)CCCCC3)ccc21` [Example 210, (S)-1-(1-methylcyclohexyl)-3-(2-oxo-1-(1-(3-(trifluoromethoxy)phenyl)ethyl)-1,2-dihydroquinoxalin-6-yl)urea], less than 100 nM; for `C[C@@H](c1cccc(OC(F)(F)F)c1)n1c(=O)cnc2cc(NC(=O)NC34CCC(CC3)C4)ccc21` [Example 211, (S)-1-(bicyclo[2.2.1]heptan-1-yl)-3-(2-oxo-1-(1-(3-(trifluoromethoxy)phenyl)ethyl)-1,2-di-hydroquinoxalin-6-yl)urea], less than 100 nM.
For `C[C@@H](c1cccc(OC(F)(F)F)c1)n1c(=O)cnc2cc(NC(=O)NC3(C)COC3)ccc21` [Example 212] the value was more than 1000 nM.
As to `C[C@@H](c1cccc(OC(F)(F)F)c1)n1c(=O)cnc2cc(NC(=O)NC34CCC(C3)C4)ccc21` [Example 213, (S)-1-(bicyclo[2.1.1]hexan-1-yl)-3-(2-oxo-1-(1-(3-(trifluoromethoxy)phenyl)ethyl)-1,2-dihydroquinoxalin-6-yl)urea], the IC50 was less than 100 nM.
For `C[C@@H](c1cccc(OC(F)(F)F)c1)n1c(=O)cnc2cc(NC(=O)NC3(C(F)(F)F)CCC3)ccc21` [Example 214, (S)-1-(2-oxo-1-(1-(3-(trifluoromethoxy)phenyl)ethyl)-1,2-dihydroquinoxalin-6-yl)-3-(1-(trifluoromethyl)cyclobutyl)urea] the value was 100 to 1000 nM.
In the case of `COCC1(NC(=O)Nc2ccc3c(c2)ncc(=O)n3[C@@H](C)c2cccc(OC(F)(F)F)c2)CCC1` [Example 215, (S)-1-(1-(methoxymethyl)cyclobutyl)-3-(2-oxo-1-(1-(3-(tri-fluoromethoxy)phenyl)ethyl)-1,2-dihydroquinoxalin-6-yl)urea], the IC50 lay within 100 to 1000 nM.
Under `C[C@@H](c1cccc(OC(F)(F)F)c1)n1c(=O)cnc2cc(NC(=O)NC3CCC(F)(F)CC3)ccc21` [Example 216] stands 100 to 1000 nM; under `C[C@@H](c1cccc(OC(F)(F)F)c1)n1c(=O)cnc2cc(NC(=O)NC3(C(F)(F)F)CCCC3)ccc21` [Example 217], 100 to 1000 nM.
Under `C[C@@H](c1cccc(OC(F)(F)F)c1)n1c(=O)cnc2c(Cl)c(NC(=O)NC(C)(C)C)ccc21` [Example 218, (S)-1-(tert-butyl)-3-(5-chloro-2-oxo-1-(1-(3-(trifluoromethoxy)phenyl)ethyl)-1,2-dihydroquinoxalin-6-yl)urea] stands 100 to 1000 nM.
Under `C[C@@H](c1cccc(OC(F)(F)F)c1)n1c(=O)cnc2cc(NC(=O)NC3(C)CC(F)(F)C3)ccc21` [Example 221, (S)-1-(3,3-difluoro-1-methylcyclobuty 1)-3-(2-oxo-1-(1-(3-(trifluoromethoxy)phenyl)ethyl)-1,2-dihydroquinoxalin-6-yl)urea] stands 100 to 1000 nM.
Regarding `C[C@@H](c1cccc(OC(F)(F)F)c1)n1c(=O)cnc2cc(NC(=O)NC3(C(F)(F)F)COC3)ccc21` [Example 222], the IC50 lay within 100 to 1000 nM.
Take `C[C@@H](c1cccc(OC(F)(F)F)c1)n1c(=O)cnc2cc(NC(=O)N[C@H]3C[C@H](C(F)(F)F)C3)ccc21` [Example 223, 1-(2-oxo-1-((S)-1-(3-(trifluoromethoxy)phenyl)ethyl)-1,2-dihydroquinoxalin-6-yl)-3-((1r,3R)-3-(trifluoromethyl)cyclobutyl)urea]: the IC50 was in the range of 100 to 1000 nM.
For `C[C@@H](c1cccc(OC(F)(F)F)c1)n1c(=O)cnc2cc(NC(=O)N[C@H]3C[C@@H](C(F)(F)F)C3)ccc21` [Example 224, 1-(2-oxo-1-((S)-1-(3-(trifluoromethoxy)phenyl)ethyl)-1,2-dihydroquinoxalin-6-yl)-3-((1s,3S)-3-(trifluoromethyl)cyclobutyl)urea] the value was 100 to 1000 nM; for `C[C@@H](c1cccc(OC(F)(F)F)c1)n1c(=O)cnc2cc(NC(=O)NC3(C(F)(F)F)CC(F)(F)C3)ccc21` [Example 225, (S)-1-(3,3-difluoro-1-(trifluoromethyl)cyclobutyl)-3-(2-oxo-1-(1-(3-(trifluoromethoxy)phenyl)ethyl)-1,2-dihydroquinoxalin-6-yl)urea], 100 to 1000 nM.
In the case of `C[C@H]1Oc2cc(NC(=O)NC3(C)CCC3)ccc2N(Cc2cccc(C(F)(F)F)n2)C1=O` [Example 226, 1-[(2R)-2-methyl-3-oxo-4-{[6-(trifluoromethyl)pyridin-2-yl]methyl}-2H-1,4-benzoxazin-7-yl]-3-(1-methylcyclobutyl)urea], the IC50 is less than 100 nM.
With `C[C@H]1Oc2cc(NC(=O)NC3(C)CCCC3)ccc2N(Cc2cccc(C(F)(F)F)n2)C1=O` [Example 227, (R)-1-(2-methyl-3-oxo-4-((6-(trifluoromethyl)pyridin-2-yl)methyl)-3,4-dihydro-2H-benzo[b][1,4]oxazin-7-yl)-3-(1-methylcyclopentyl) urea], the IC50 was less than 100 nM.
Under `C[C@H]1Oc2cc(NC(=O)NC3CCCCC3)ccc2N(Cc2cccc(C(F)(F)F)n2)C1=O` [Example 228, (R)-1-cyclohexyl-3-(2-methyl-3-oxo-4-((6-(trifluoromethyl)pyridin-2-yl)methyl)-3,4-dihydro-2H-benzo[b][1,4]oxazin-7-yl)urea] stands less than 100 nM; under `C[C@H]1Oc2cc(NC(=O)NC3(C)CCCCC3)ccc2N(Cc2cccc(C(F)(F)F)n2)C1=O` [Example 229, (R)-1-(2-methyl-3-oxo-4-((6-(trifluoromethyl)pyridin-2-yl)methyl)-3,4-dihydro-2H-benzo[b][1,4]oxazin-7-yl)-3-(1-methylcyclohexyl) urea], less than 100 nM; under `C[C@H]1Oc2cc(NC(=O)NC3CC4CC4C3)ccc2N(Cc2cccc(C(F)(F)F)n2)C1=O` (stereo partly drawn) [Example 230, 1-(bicyclo[3.1.0]hexan-3-yl)-3-((R)-2-methyl-3-oxo-4-((6-(trifluoromethyl)pyridin-2-yl)methyl)-3,4-dihydro-2H-benzo[b][1,4]oxazin-7-yl)urea], 100 to 1000 nM.
On to `C[C@H]1Oc2cc(NC(=O)NC3(C)CC(F)(F)C3)ccc2N(Cc2cccc(C(F)(F)F)n2)C1=O` [Example 231, (R)-1-(3,3-difluoro-1-methylcyclobutyl)-3-(2-methyl-3-oxo-4-((6-(trifluoromethyl)pyridin-2-yl)methyl)-3,4-dihydro-2H-benzo[b][1,4]oxazin-7-yl)urea], for which the IC50 fell in the range of 100 to 1000 nM.
In the case of `C[C@H]1Oc2cc(NC(=O)NC3(C(F)(F)F)CCC3)ccc2N(Cc2cccc(C(F)(F)F)n2)C1=O` [Example 232, (R)-1-(2-methyl-3-oxo-4-((6-(trifluoromethyl)pyridin-2-yl)methyl)-3,4-dihydro-2H-benzo[b][1,4]oxazin-7-yl)-3-(1-(trifluoromethyl)cyclobutyl)urea], the IC50 fell in the range of 100 to 1000 nM.
